Source: PubChem BioAssay AID588552 (Johns Hopkins Ion Channel Center, 2011)
pIC50: −log10 of the molar value. The source made the active and inactive calls.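 Rule for the calls: active = compounds whose IC50 for blocking RGS4-driven GTP breakdown by the G-protein falls below a set limit; inactive = IC50 above a set limit.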

Biological target: Regulator of G-protein signaling 4 (Rattus norvegicus) (UniProt P49799)
Experiment: RGS4-stimulated Galphai1 GTP hydrolysis blockers – biochemical, rat RGS4, steady-state, receptor-independent, malachite green, confirmation (AID 588552)
Details: RGS4-stimulated Galphai1 GTPase, malachite green phosphate absorbance

Chain of Regulator of G-protein signaling 4 (Rattus norvegicus) (P49799 whole entry, looked up): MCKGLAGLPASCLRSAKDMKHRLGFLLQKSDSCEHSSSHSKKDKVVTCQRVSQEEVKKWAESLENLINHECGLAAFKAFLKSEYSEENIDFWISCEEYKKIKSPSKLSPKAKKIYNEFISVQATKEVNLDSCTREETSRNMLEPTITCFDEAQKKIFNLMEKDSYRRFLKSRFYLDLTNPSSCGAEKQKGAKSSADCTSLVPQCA

Structure (SMILES)	IC50	pIC50
COc1ccc(NC(=O)/C(C#N)=C\c2ccc(Sc3nncn3C)c([N+](=O)[O-])c2)cc1	> 110 µM (inactive)	
O=C1/C(=C\c2ccc(Cl)c(Cl)c2)N2CCC1CC2	> 110 µM (inactive)	
CN(C)c1oc(-c2ccccc2[N+](=O)[O-])nc1C#N		4.73
O=C(/C=C/c1ccc([N+](=O)[O-])cc1)c1ccco1	> 110 µM (inactive)	
O=C1NC(=S)N(c2ccccc2F)C(=O)/C1=C\c1cccs1		4.45
CCOC(=O)C1=C(O)/C(=C\c2cccc(OC)c2)N=C1C	> 110 µM (inactive)	
COc1cc2c(cc1O)C(SC)=NC(C)(C)C2		4.50
CN(C)C(=O)COc1ccc(C(=O)/C=C/c2cccnc2)cc1		4.23
Cc1ccc(C(C2=C(O)CC(C)(C)CC2=O)C2C(=O)CC(C)(C)CC2=O)o1 (stereo not drawn)	> 110 µM (inactive)	
CCOCCCNC(=O)/C(C#N)=C\c1ccc([N+](=O)[O-])o1		4.97
O=C(O)c1ccc(/C=C/C(=O)c2ccc3c(c2)OCCCO3)cc1		4.46
CC1=NOC(=O)/C1=C/c1ccc(O)cc1	> 110 µM (inactive)	
NC(=O)N/N=C/c1c(Sc2nnnn2-c2ccccc2)nc2ccccn2c1=O		4.26
CN1C/C(=C/c2ccncc2)C(=O)/C(=C/c2ccncc2)C1		4.43
Cc1ccc(/C=C/C(=O)N2CC(C)CC(C)C2)o1 (stereo not drawn)		4.78
Cc1ccc(/C=C2\C(=O)NC(=S)N(c3ccc(F)cc3)C2=O)s1		4.96
Oc1c(Cl)cc(Cl)c2c1NCCC2		4.42
COc1ccc(-c2csc(NC3OC(=O)c4c3ccc(OC)c4OC)n2)cc1OC (stereo not drawn)	> 110 µM (inactive)	
CN1CCc2cc(O)cc3c2[C@H]1Cc1ccc(O)c(O)c1-3		5.01
O=C1/C(=C\c2ccc(Cl)cc2Cl)N2CCC1CC2	> 110 µM (inactive)	

Structure (SMILES)	IC50	pIC50
COc1ccc(C(C[N+](=O)[O-])c2c(-c3ccccc3)cc3ccccn23)cc1OC (stereo not drawn)	> 110 µM (inactive)	
Cc1csc(NC(=O)COCC(=O)O)c1-c1nc2ccccc2s1	> 110 µM (inactive)	
Cc1ccccc1OCc1nnc(SCC(=O)Nc2ccc3c(c2)oc2ccccc23)n1C	> 110 µM (inactive)	
Cn1c(OCc2ccco2)nc2c1c(=O)n(Cc1ccc(Cl)c(Cl)c1)c(=O)n2C	> 110 µM (inactive)	
CN1C(=O)S/C(=C\c2ccccc2OCc2ccc(C(=O)O)cc2)C1=O		4.12
CCOC(=O)/C=C/C(=O)OCC(=O)N1CCN(C(=O)c2ccco2)CC1	> 110 µM (inactive)	
CCOCCCNC(=O)/C(C#N)=C\c1ccc(Cl)c([N+](=O)[O-])c1	> 110 µM (inactive)	
COc1ccc(NC(=O)/C(Cl)=C(/Cl)S(=O)Cc2ccccc2)cn1 (stereo not drawn)		6.00
COC(=O)CSc1[nH]c2cc(C)ccc2c1[N+](=O)[O-]	> 110 µM (inactive)	
O=C/C=C/c1c(-c2ccccc2)cc2oc3ccccc3cc1-2	> 110 µM (inactive)	
O=[N+]([O-])c1ccc(O)c(/C=N/NC(=S)Nc2ccc(Cl)cc2Cl)c1	> 110 µM (inactive)	
Cc1nc2c(=O)n(C)c(=O)n(C)c2nc1Cl	> 110 µM (inactive)	
O=C(/C=C/c1ccncc1)c1ccc2c(c1)OCCO2		4.51
O=C(O)c1ccc(/C=C2\COc3ccccc3C2=O)cc1		5.29
CN(C)c1ccc(C(C[N+](=O)[O-])c2c(N)n(C)c(=O)n(C)c2=O)c(F)c1C#N (stereo not drawn)	> 110 µM (inactive)	
CC1=NN(c2ccc(C(=O)O)cc2)C(=O)/C1=C\c1ccc(OC(=O)c2cccs2)cc1		4.93
O=C1N=c2ccccc2=C1c1c(O)n(-c2cccc(F)c2)[nH]c1=O		4.25
CCCN1CCc2cc(O)cc3c2[C@H]1Cc1ccc(O)c(O)c1-3		4.96
COc1ccc2cc(C3C(C#N)=C(N)OC(C)=C3C(C)=O)c(Cl)nc2c1 (stereo not drawn)	> 110 µM (inactive)	
CC(C)(C)c1ccc(Cn2nnc3c(=O)[nH]c(C4CCN(C(=O)Cc5cccs5)CC4)nc32)cc1	> 110 µM (inactive)	

Structure (SMILES)	IC50	pIC50
COc1ccc(OC)c(N2C(=O)NC(=O)/C(=C/c3ccc([N+](=O)[O-])s3)C2=O)c1		4.74
N[C@@H](Cc1cc(Br)c(O)c(Br)c1)C(=O)O	> 110 µM (inactive)	
Cc1ccc(CNC(=O)c2cn(C3CCCCC3)c(=O)c3c2c2ccccc2n3C)o1	> 110 µM (inactive)	
O=C(N/N=C/c1cc([N+](=O)[O-])ccc1O)NC12CC3CC(CC(C3)C1)C2	> 110 µM (inactive)	
Cc1c(NC(=O)c2coc(=O)c(Br)c2)c(=O)n(-c2ccccc2)n1C	> 110 µM (inactive)	
O=C1C=C(NC2=CC3OC(c4ccccc4)OCC3OC2=O)CCC1 (stereo not drawn)		4.47
Cc1cc2nc(CS)[nH]c2cc1C	> 110 µM (inactive)	
O=C1/C(=C/c2ccncc2)CCC/C1=C\c1ccncc1		5.00
N#C/C(=C/c1ccc(Cl)c([N+](=O)[O-])c1)c1ccccn1	> 110 µM (inactive)	
O=C(CCNc1ccc(F)cc1)c1ccco1	> 110 µM (inactive)	
O=C(O)c1ccc2c(c1)C(=O)N(c1cccc(C(=O)/C=C/c3ccccc3)c1)C2=O		4.63
Cc1cc(-c2n[nH]c(=S)n2/N=C/C(Br)=C/c2ccccc2)n[nH]1		5.40
Cc1cccc(N2C(=O)/C(=C/c3ccc(C(=O)O)cc3)c3ccccc3C2=O)c1		4.50
CC(C)OP(=O)(OC(C)C)/C(C=O)=N\Nc1ccc([N+](=O)[O-])cc1	> 110 µM (inactive)	
COc1cccc(/C=C/C(=O)c2c(O)cc(C)oc2=O)c1O	> 110 µM (inactive)	
CN1C(=O)/C(=C\c2ccc(Br)s2)C(=O)NC1=S		4.83
Cc1ccc(C(C2C(=O)CC(C)(C)CC2=O)C2C(=O)CC(C)(C)CC2=O)s1		4.04
COC(=O)CSc1[nH]c2ccccc2c1[N+](=O)[O-]		4.26
